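Test compounds were applied to cells in 96-well plates for 48 hours at 5 doses. GI50 is the concentration that inhibits growth by half.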 Calls of active or inactive are those of the source. No stated cut-off is given here; in the data, active = GI50 up to about 1.1 µM and inactive = higher.
What was measured:
Test in all cases: growth of human tumour cells (NCI), 48 h
A549 = test system: A549
ACHN = test system: ACHN
CCRF-CEM = test system: CCRF-CEM
COLO 205 = test system: COLO 205
EKVX = test system: EKVX
HCT-15 = test system: HCT-15
HOP-92 = test system: HOP-92
HT-29 = test system: HT-29
IGROV-1 = test system: IGROV-1
MDA-N = test system: MDA-N
MOLT-4 = test system: MOLT-4
Malme-3M = test system: Malme-3M
NCI-H460 = test system: NCI-H460
OVCAR-5 = test system: OVCAR-5
RPMI-8226 = test system: RPMI-8226
RXF 393 = test system: RXF 393
SK-MEL-5 = test system: SK-MEL-5
SR = test system: SR
UACC-257 = test system: UACC-257
UO-31 = test system: UO-31

| Structure (SMILES) | GI50 (A549) | GI50 (ACHN) | GI50 (CCRF-CEM) | GI50 (COLO 205) | GI50 (EKVX) | GI50 (HCT-15) | GI50 (HOP-92) | GI50 (HT-29) | GI50 (IGROV-1) | GI50 (MDA-N) | GI50 (MOLT-4) | GI50 (Malme-3M) | GI50 (NCI-H460) | GI50 (OVCAR-5) | GI50 (RPMI-8226) | GI50 (RXF 393) | GI50 (SK-MEL-5) | GI50 (SR) | GI50 (UACC-257) | GI50 (UO-31) |
| --- | --- | --- | --- | --- | --- | --- | --- | --- | --- | --- | --- | --- | --- | --- | --- | --- | --- | --- | --- | --- |
| C[C@H]1C2Cc3cc(N)ccc3[C@@]1(C)CCN2CCc1ccccc1 | 42.7 µM (inactive) | 41.2 µM (inactive) | 33.2 µM (inactive) | 16.8 µM (inactive) | 40.6 µM (inactive) | 25.2 µM | 21.4 µM (inactive) | 6.49 µM (inactive) | 41.9 µM (inactive) | 66.2 µM (inactive) | 20.4 µM (inactive) | 17.7 µM (inactive) | 33.1 µM (inactive) | 74.6 µM (inactive) | 33.6 µM (inactive) | 33.3 µM (inactive) | 18.3 µM (inactive) | 19.3 µM (inactive) | 30.7 µM (inactive) | 52 µM (inactive) |
| C/C(=N\Nc1nc2cccnc2s1)c1ccccn1 | 0.245 µM (active) | < 0.01 µM (active) | < 0.01 µM (active) | < 0.01 µM (active) | < 0.01 µM (active) | < 0.0218 µM | 0.37 µM (active) | < 0.01 µM (active) | < 0.0141 µM (active) | 1.81 µM (inactive) | < 0.01 µM (active) | < 0.01 µM (active) | 0.0369 µM (active) | 0.845 µM (active) | < 0.0143 µM (active) | 1.06 µM (active) | 0.033 µM (active) | 0.0335 µM (active) | < 0.01 µM (active) | 0.0158 µM (active) |
| O=C(NC(Cl)(C(F)(F)F)C(F)(F)F)c1ccc(F)cc1 | > 100 µM (inactive) | > 100 µM (inactive) | > 100 µM (inactive) | > 100 µM (inactive) | > 100 µM (inactive) | > 100 µM | > 100 µM (inactive) | > 100 µM (inactive) | > 100 µM (inactive) | > 100 µM (inactive) | > 100 µM (inactive) | > 100 µM (inactive) | > 100 µM (inactive) | > 100 µM (inactive) | > 100 µM (inactive) | > 100 µM (inactive) | > 100 µM (inactive) | > 100 µM (inactive) | > 100 µM (inactive) | > 100 µM (inactive) |
| CCOC(=O)/C=C(/C(=O)OCC)n1cc(C)c(=O)n(/C(=C/C(=O)OCC)C(=O)OCC)c1=O | 15.9 µM (inactive) | 1.89 µM (inactive) | 0.354 µM (active) | 1.32 µM (inactive) | 3.06 µM (inactive) | 1.56 µM | 1.52 µM (inactive) | 2.69 µM (inactive) | 4.75 µM (inactive) | 3.78 µM (inactive) | 1.32 µM (inactive) | 1.85 µM (inactive) | 16.1 µM (inactive) | 6.62 µM (inactive) | 1.88 µM (inactive) | 1.8 µM (inactive) | 7.31 µM (inactive) | 1.89 µM (inactive) | 4.9 µM (inactive) | 5.31 µM (inactive) |
| Cc1ccnc2c1C(=O)C1=C(OC(C)(C)CC1O)C2=O (stereo not given) | 8.77 µM (inactive) | 5.82 µM (inactive) | 2.97 µM (inactive) | 2.41 µM (inactive) | 5.21 µM (inactive) | 2.38 µM | 10.1 µM (inactive) | 3.08 µM (inactive) | 3.03 µM (inactive) | 1.45 µM (inactive) | 3.9 µM (inactive) | 1.27 µM (inactive) | 2.9 µM (inactive) | 8.26 µM (inactive) | 4.06 µM (inactive) | 10.7 µM (inactive) | 1.17 µM (inactive) | 2.03 µM (inactive) | 1.74 µM (inactive) | 2.2 µM (inactive) |
| CC[C@@]1(O)C(=O)OCc2c1cc1n(c2=O)Cc2c-1nc1ccccc1c2/C=N/NC(=O)C[N+](C)(C)C | 1.22 µM (inactive) | 0.277 µM (active) | 0.123 µM (active) | 62.4 µM (inactive) | 47.9 µM (inactive) | 14 µM | 3.68 µM (inactive) | 13.2 µM (inactive) | 38.8 µM (inactive) | 9.62 µM (inactive) | 0.207 µM (active) | 16.7 µM (inactive) | 0.15 µM (active) | 30.4 µM (inactive) | 4.93 µM (inactive) | 0.697 µM (active) | 1.5 µM (inactive) | 0.0391 µM (active) | 12.7 µM (inactive) | 0.944 µM (active) |

Source: ChEMBL document CHEMBL1201862, “PubChem BioAssay data set” (2004)
